Measurements reported in paper PMC3227451, “Structure-based development of novel sirtuin inhibitors” (Aging (Albany NY), 2011).

Experiments:
Sirt3 = biological target: T1, Sirt3 (Homo sapiens, UniProt Q9NTG7); test: Fluor-de-Lys peptide deacetylation assay, Sirt3; assay type: biochemical
T1 construct: Sirt3 residues 114-399; His-tag with linker comprising a TEV protease cleavage site (N); made in house; host or cells: E. coli
T1 sequence (Q9NTG7 114-399): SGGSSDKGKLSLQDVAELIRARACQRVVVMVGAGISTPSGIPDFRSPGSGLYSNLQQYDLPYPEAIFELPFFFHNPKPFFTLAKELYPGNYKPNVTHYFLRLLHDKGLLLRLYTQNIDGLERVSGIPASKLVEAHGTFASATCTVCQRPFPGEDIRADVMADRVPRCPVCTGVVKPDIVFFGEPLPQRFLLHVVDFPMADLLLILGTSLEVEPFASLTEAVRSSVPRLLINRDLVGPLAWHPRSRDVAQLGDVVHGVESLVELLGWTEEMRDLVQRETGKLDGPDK
Method in brief: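 E. coli-expressed human Sirtuins with 0.5 mM NAD+ and 0.1 mM Fluor-de-Lys peptide: FdL-2 (QPK(acetyl-K)) for Sirt3, FdL-1 (RHK(acetyl-K)) for Sirt5. Compounds at 100 μM final; 30 min at 37 °C, then trypsin developer for 45 min at room temperature.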

Sirt1 = biological target: T2, Sirt1 (Homo sapiens, UniProt Q96EB6); test: in vitro activity of Sirt1; assay type: biochemical; conditions: concentration of 100 μM
T2 sequence (Q96EB6 1-747): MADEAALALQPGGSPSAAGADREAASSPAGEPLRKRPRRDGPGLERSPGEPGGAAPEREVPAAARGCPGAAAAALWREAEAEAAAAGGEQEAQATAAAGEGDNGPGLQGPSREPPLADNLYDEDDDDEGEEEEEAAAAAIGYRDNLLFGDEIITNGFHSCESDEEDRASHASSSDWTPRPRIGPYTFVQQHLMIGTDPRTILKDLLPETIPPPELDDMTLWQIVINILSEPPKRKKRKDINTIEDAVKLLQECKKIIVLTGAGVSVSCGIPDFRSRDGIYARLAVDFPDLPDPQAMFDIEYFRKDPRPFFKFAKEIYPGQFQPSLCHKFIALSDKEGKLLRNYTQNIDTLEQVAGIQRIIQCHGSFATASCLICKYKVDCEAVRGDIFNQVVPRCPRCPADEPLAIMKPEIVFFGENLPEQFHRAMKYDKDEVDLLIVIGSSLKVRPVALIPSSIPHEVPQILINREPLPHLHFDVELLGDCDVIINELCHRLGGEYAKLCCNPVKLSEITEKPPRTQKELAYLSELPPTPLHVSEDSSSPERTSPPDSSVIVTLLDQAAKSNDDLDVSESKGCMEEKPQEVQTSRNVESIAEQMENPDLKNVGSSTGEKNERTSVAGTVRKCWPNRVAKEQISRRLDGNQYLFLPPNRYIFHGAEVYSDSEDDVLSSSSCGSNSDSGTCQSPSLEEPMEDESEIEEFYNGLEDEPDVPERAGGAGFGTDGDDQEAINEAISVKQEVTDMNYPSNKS

## CC12Cc3cnc(-c4ccccc4)nc3CC1CCC1C2CCC2(C)C1CCC2(C)O (centres unmarked) [CSC13, 1,11a,13a-trimethyl-8-phenyl-2,3,3a,3b,4,5,5a,6,11,11a,11b,12,13,13a-tetradecahydro-1H-cyclopenta[5,6]naphtho[1,2-g]quinazolin-1-ol]
Sirt3
  Effect on the activity of Sirt3: --- (key: inhibition: significant inhibitory effects (>25% loss of activity); ---: no such effect)
Sirt1
  effect on the in vitro activity of Sirt1: only a weak inhibitory effect
